According to ChEMBL document CHEMBL1131272, “Aromatic analogs of arcaine inhibit MK-801 binding to the NMDA receptor” (Bioorg Med Chem Lett, 1998):

Columns and labels:
[1] = biological target: Glutamate [NMDA] receptor; assay: Ability to inhibit MK-801 binding to NMDA receptor in the presence of 100 uM of spermidine was determined; assay type: protein-complex assay
[2] = biological target: Glutamate [NMDA] receptor; assay: Ability to inhibit MK-801 binding to the NMDA receptor was determined; assay type: protein-complex assay

SMILES	IC50 [1] [µM]	IC50 [2] [µM]
N=C(N)NCc1cccc(CNC(=N)N)c1	7.09	1.19
CCCCN(Cc1cccc(CN(CCCC)C(=N)N)c1)C(=N)N	9.27	2.8
CCCN(Cc1cc(CN(CCC)C(=N)N)cc(OC)c1)C(=N)N	55.3	20.6
CCCN(Cc1cccc(CN(CCC)C(=N)N)c1)C(=N)N	12.2	0.58
CCCN(Cc1cccc(CN(CCC)C(=N)N)n1)C(=N)N	95.2	8.62
CC(C)CN(Cc1cccc(CN(CC(C)C)C(=N)N)c1)C(=N)N	112	10.8
N=C(N)NCc1cccc(CNC(=N)N)n1	49.3	4.02
CC(C)Oc1cc(CNC(=N)N)cc(CNC(=N)N)c1	10.5	2.43

Results, then the compound that gave them:

IC50 [1] [µM]	IC50 [2] [µM]	SMILES
20.6	4.34	N=C(N)NCc1cc(CNC(=N)N)cc(NC(=O)c2ccccc2)c1
5.89	1.3	COc1cc(CNC(=N)N)cc(CNC(=N)N)c1
29.8	3.85	C=CCN(Cc1cccc(CN(CC=C)C(=N)N)c1)C(=N)N
111	10.6	CCCN(Cc1cc(O)cc(CN(CCC)C(=N)N)c1)C(=N)N
80	9.13	NC(N)=NCCCCN=C(N)N [ARCAINE]
9.88	9.07	N=C(N)NCc1cc(CNC(=N)N)cc(OC2CCCCC2)c1
75.8	5.1	CCN(Cc1cccc(CN(CC)C(=N)N)c1)C(=N)N
2.23	3.82	N=C(N)N(Cc1ccccc1)Cc1cccc(CN(Cc2ccccc2)C(=N)N)c1
15.7	5.14	N=C(N)NCc1cc(CNC(=N)N)cc(-c2ccccc2)c1
